One data set concerns STZ-rats. The data set can be described thus: Blood glucose level in streptozocin(STZ)-treated rats. It counts as in vivo, rat. As to the method: (b) Streptozocin(STZ)-treated rats: Diabetes was induced by a single intravenous injection of a freshly prepared solution of streptozocin (55 mg/kg of body weight) in 0.1 M citrate buffer (pH 4.5).
Each group received daily i.p. injections of 0.05 mmol/kg (at 11.00 a.m.), of the corresponding compound.

For another data set, the system named is rat adipocytes. Briefly: Lipogenesis bioassay ([U-14C]glucose incorporation into lipids) in rat adipocytes. It counts as cell-based. The note with it: for Percent of maximal effect of insulin, Amino acid-HXM only (10 μM): free amino acid monohydroxamate 10 μM, lipogenesis; for Net Potentiating Effect (%): potentiation of lipogenic capacity of VOCl2 10 μM by equimolar HXM; for Synergizing effect relative to that exerted by Glu(γ)HXM: 1:1 molar ratio; for Synergizing effect relative to that exerted by Glu(γ)HXM / Potentiation of the insulinomimetic (lipogenic) efficacy of VOCl2, in words: vanadium (+4); for Potentiation of the insulinomimetic (lipogenic) efficacy of VOCl2, in words: equimolar HXM. As for the experimental part: The fat pads of male Wistar rats were cut into small pieces with scissors and suspended in 3 ml of KRB buffer. […] Five ml of buffer was then added, and the cells were passed through a mesh screen. The cells were then allowed to stand for several minutes in a 15-ml plastic test tube at room temperature, floating, and the buffer underneath was removed. This procedure (suspension, floating, and removal of buffer underneath) was repeated three times.
In the lipogenic assay, for measurement of glucose uptake and its incorporation into lipids (lipogenesis), the adipocyte suspensions (3×10^5 cells/ml) were divided into plastic vials (0.5 ml per vial) and incubated for 60 min at 37° C. under an atmosphere of carbogen with 0.2 mM [U-^14C]glucose (4-7 mCi/mol), in either the absence or presence of insulin (100 ng/ml), and the complexes to be tested.

Data set [1] has as its system isoproterenol mediated lipolysis. Briefly: Inhibition of isoproterenol mediated lipolysis in vitro. The format is cell-based.
Another data set has as its system melanoma B16 cells. Particulars: in vivo; cited from earlier work.
A further data set deals with leukemia L1210 cells. The note with it: in vitro; cited from earlier work.
Data set [2] relates to vanadium-enriched adipocytes. The data set can be described thus: Lipogenesis in vanadium-enriched versus normal adipocytes. It counts as cell-based, rat. Particulars: rats given NaVO3 12 mg/kg/day s.c. for five days (FIG. 8). As for the experimental part:
Lipogenesis was performed as described above using free Glu(γ)HXM to compare freshly prepared rat adipocytes (3×10^5 cells/ml) from non-enriched vanadium rats to the enriched-vanadium rats.

The test system of the next data set is adipocytes. Briefly: Hexose influx (2-deoxy-D-[6-3H]glucose) into adipocytes. The format is cell-based, rat. The note with it: for Hexose influx, in words: two different concentrations (FIG. 4). As to the method: In order to test the specific effect of free Glu(γ)HXM and the Glu(γ)HXM:NaVO3 (2:1) complex on the entrance of glucose into cells, an in vitro assay was performed using 2-deoxy-D-[6-^3H]glucose (2-DG). 2-DG is a non-metabolized analog of glucose and this assay thus represents the influence of a compound on glucose influx to cells, independent of glucose metabolism.
Aliquots (70 μl) of the aforementioned samples were transferred into tubes that contained 2-deoxy-D-[6-^3H]glucose (0.1 mM final concentration). After 3 minutes, phloretin ([…]) was added in order to terminate the penetration of 2-DG into the cells. Samples of the suspended cells were then transferred to tubes with silicone oil where, upon centrifugation, the cells separate from the KRB medium and leftover 2-DG.

In another data set the test system is leukemia L1210. The note with it: in vivo; cited from earlier work.
For a further data set, the target named is InsRTK (Rattus norvegicus, UniProt P15127). Particulars: cited from earlier work.
Sequence of InsRTK (P15127 27-1383): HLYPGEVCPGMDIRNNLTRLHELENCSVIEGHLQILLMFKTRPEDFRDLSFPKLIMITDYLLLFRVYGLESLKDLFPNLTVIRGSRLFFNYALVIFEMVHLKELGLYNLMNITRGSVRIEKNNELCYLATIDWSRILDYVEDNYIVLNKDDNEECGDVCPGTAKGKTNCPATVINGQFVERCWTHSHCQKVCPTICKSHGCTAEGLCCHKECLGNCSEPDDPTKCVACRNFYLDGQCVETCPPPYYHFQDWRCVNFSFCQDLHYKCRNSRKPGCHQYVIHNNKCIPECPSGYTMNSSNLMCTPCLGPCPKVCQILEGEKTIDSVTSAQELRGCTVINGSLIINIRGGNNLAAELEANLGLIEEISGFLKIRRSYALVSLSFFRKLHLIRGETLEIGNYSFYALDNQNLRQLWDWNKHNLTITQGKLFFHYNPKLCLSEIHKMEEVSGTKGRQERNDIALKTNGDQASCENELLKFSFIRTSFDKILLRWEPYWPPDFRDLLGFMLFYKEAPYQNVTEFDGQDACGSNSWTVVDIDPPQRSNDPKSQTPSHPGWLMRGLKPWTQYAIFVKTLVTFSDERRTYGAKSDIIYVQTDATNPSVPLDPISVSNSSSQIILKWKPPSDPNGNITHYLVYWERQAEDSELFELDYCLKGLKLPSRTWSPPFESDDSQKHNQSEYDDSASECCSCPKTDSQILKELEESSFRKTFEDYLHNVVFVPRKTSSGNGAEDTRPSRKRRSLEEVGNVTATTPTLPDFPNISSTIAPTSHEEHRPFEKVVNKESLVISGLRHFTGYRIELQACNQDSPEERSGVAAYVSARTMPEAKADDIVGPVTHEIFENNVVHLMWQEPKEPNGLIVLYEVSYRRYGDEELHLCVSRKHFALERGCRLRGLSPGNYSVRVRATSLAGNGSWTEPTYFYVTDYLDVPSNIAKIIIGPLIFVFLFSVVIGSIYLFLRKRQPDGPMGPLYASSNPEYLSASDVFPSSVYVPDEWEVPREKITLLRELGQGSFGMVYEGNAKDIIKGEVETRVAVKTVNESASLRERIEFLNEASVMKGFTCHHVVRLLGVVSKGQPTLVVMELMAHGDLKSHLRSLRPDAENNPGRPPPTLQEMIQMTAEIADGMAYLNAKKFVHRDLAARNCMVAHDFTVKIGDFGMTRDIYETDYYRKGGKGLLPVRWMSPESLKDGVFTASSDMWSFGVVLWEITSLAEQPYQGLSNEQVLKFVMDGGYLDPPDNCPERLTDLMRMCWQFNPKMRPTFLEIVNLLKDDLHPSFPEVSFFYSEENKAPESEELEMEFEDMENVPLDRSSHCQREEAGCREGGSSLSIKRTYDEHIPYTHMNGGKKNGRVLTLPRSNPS
Another data set concerns Friend leukemia cells. The note with it: in vitro; cited from earlier work.
Data set [3] concerns murine leukemia L5178Y. The note with it: in vitro; cited from earlier work.
Data set [4] deals with murine leukemia L5178Y. The note with it: in vivo; cited from earlier work.
[5] abbreviates: insulin 100 ng/ml, typical experiment.

This is an account of results in patent US6414029B1, “Vanadium complexes of monohydroxamates and pharmaceutical compositions comprising them” (priority 1997, dated 2002).

pKi: −log10 of the molar value. “Also recorded” adds a separate entry of the source. Read-outs that look alike come from different tables or passages of the source.

Consider `Cl.Cl.[O]=[V]` [VOCl2, vanadyl chloride], for which, in the data set with STZ-rats (i.p. 0.02 mmol/kg/day, 12 days (FIG. 2)), the “Effect on blood glucose levels of STZ-rats, in words” value is “no significant effect”.

With `N[C@@H](Cc1c[nH]c2ccccc12)C(=O)NO` [Trp-HXM, L-tryptophan hydroxamate], in the data set on rat adipocytes, the “Percent of maximal effect of insulin, Amino acid-HXM only (10 μM)” value (“Percent of maximal effect of insulin” below) came out at 2% and the “Net Potentiating Effect (%)” value was “˜9%”.

Consider `N[C@@H](CCC(=O)NO)C(=O)O` [Glu(γ)HXM, L-glutamic acid γ-monohydroxamate], for which the “Lipogenesis in the absence of exogeneously added vanadium, in words” value in the data set on rat adipocytes (10-100 μM (FIG. 6)) is on record as “activates lipogenesis; also recorded: produce insulin effects”. The “Percent of maximal effect of insulin” value with rat adipocytes stood at 22%. For the same compound, the “Activation together with a saturated concentration of insulin, in words” value in the data set on rat adipocytes (in vitro) was “additive to maximal effect”. In addition, the “Net Potentiating Effect (%)” value with rat adipocytes was 51%. The “Potentiation of vanadium (+5) in activating glucose metabolism in rat adipocytes” value with rat adipocytes (vanadium (+5)) is recorded as 7-10 fold. For the same compound, in [1], the “Isoproterenol mediated lipolysis, in words” value is given as “inhibition of isoproterenol mediated lipolysis”. In addition, the “Elevation of the efficacy of vanadate to lower blood glucose levels” value in the data set with STZ-rats (STZ-treated diabetic rats) is reported as 5-7 fold. For the same compound, the “Cytotoxicity, in words” value with melanoma B16 cells, in the data set on leukemia L1210 cells and with leukemia L1210 was “cytotoxic” each time. In addition, the “Potentiation of intracellular vanadium in enriched-vanadium rat cells versus normal adipocytes, in words” value in data set [2] is “to a much greater extent”. In addition, in the data set with adipocytes (20 and 40 μM, 30 min preincubation (FIG. 4)), the “Glucose entry into cells, magnitude as % of maximal insulin response” value is “about 60%”. Also, the “Hexose influx, in words” value in the data set on adipocytes is given as “stimulate hexose influx”.

Turning to `CC(C)(N)C(=O)NO` [Aib-HXM, aminoisobutyric acid monohydroxamate], in the data set on rat adipocytes, the “Percent of maximal effect of insulin” value is reported as 0% (−3%) and the “Net Potentiating Effect (%)” value stood at 0%.

Regarding `N=C(N)NCCC[C@H](N)C(=O)NO` [Arg-HXM, L-arginine hydroxamate], in the data set with rat adipocytes, the “Percent of maximal effect of insulin” value turned out to be 4% and the “Net Potentiating Effect (%)” value is reported as “˜2%”.

`N[C@@H](CC(=O)NO)C(=O)O` [L-Asp(β)HXM, L-aspartic acid β-monohydroxamate]: in the data set on rat adipocytes, the “Synergizing effect relative to that exerted by Glu(γ)HXM” value was around 85%; the “Percent of maximal effect of insulin” value worked out at 8%; the “Net Potentiating Effect (%)” value was 54%.

L-histidine hydroxamate [His-HXM]: in the data set on rat adipocytes, the “Percent of maximal effect of insulin” value turned out to be 4% and the “Net Potentiating Effect (%)” value is reported as “˜3%”.

By pKi is commonly meant the negative decadic logarithm of the Ki, by convention in mol/L. `CN[C@@H]1C[C@H]2O[C@@](C)([C@@H]1OC)n1c3ccccc3c3c4c(c5c6ccccc6n2c5c31)C(=O)NC4` [Staurosporine]: the pKi on InsRTK is around 6.00.

Regarding “insulin: Porcine insulin purchased from Eli Lilly Co.”, in the data set on rat adipocytes (setting [5]), the “Insulin-stimulated lipogenesis relative to basal” value is recorded as 4-5 fold and the Vinsulin is listed as 8,000-10,000 cpm per 3×10^5 cell/h.

For the compound `N[C@H](CC(=O)NO)C(=O)O` [D-Asp(β)HXM, D-Aspartic acid β-hydroxamate], the “Activity against Friend leukemia cells, in words” value in the data set on Friend leukemia cells is listed as “active”. For the same compound, the “Antitumoral activity, in words” value in the data set on murine leukemia L5178Y [3] and in the data set on murine leukemia L5178Y [4] was “antitumoral activity” each time.

Take sodium metavanadate [NaVO3]: the “Hexose influx, in words” value in the data set on adipocytes is given as “stimulate hexose influx”.

With `N[C@H](CCC(=O)NO)C(=O)O` [D-Glu(γ)HXM, D-glutamic acid γ-monohydroxamate], in the data set on rat adipocytes, the “Synergistic action with vanadium, stereospecificity, in words” value is “not facilitated”; the “Percent of maximal effect of insulin” value came to 1%; the “Net Potentiating Effect (%)” value was 0%; the “Potentiation of the insulinomimetic (lipogenic) efficacy of VOCl2, in words” value is listed as “did not potentiate”.

Turning to `O=C(NO)c1cccnc1` [Nic-HXM, nicotinic acid hydroxamate], in the data set on rat adipocytes, the “Synergizing effect relative to that exerted by Glu(γ)HXM” value is around 57%; the “Percent of maximal effect of insulin” value amounted to 11%; the “Net Potentiating Effect (%)” value is 29%.

In the case of `CC(=O)N[C@@H](CCC(=O)NO)C(=O)O` [N-acetyl Glu(γ)HXM, N-acetyl-L-glutamic acid γ-monohydroxamate], in the data set on rat adipocytes, the “Percent of maximal effect of insulin” value is recorded as 0%; the “Net Potentiating Effect (%)” value stood at 0%; the “Potentiation of the insulinomimetic (lipogenic) efficacy of VOCl2, in words” value was “did not potentiate”.

In the case of `NCCCC[C@H](N)C(=O)NO` [Lys-HXM, L-lysine hydroxamate], in the data set with rat adipocytes, the “Percent of maximal effect of insulin” value is given as 0% (−4%) and the “Net Potentiating Effect (%)” value is 0%.
